Key:
Assay type in all cases: in vivo
Erysiphe graminis = test: Powdery Mildew of Wheat (ERYSGT), protectant spray test on wheat seedlings; settings: wheat (cultivar Monon), sprayed to run off at 100 ppm, inoculated after 24 hours
Puccinia recondita = test: Brown Rust (PUCCRT), protectant spray test on wheat seedlings; settings: wheat (cultivar Monon), sprayed to run off at 100 ppm, inoculated after 24 hours
Leptosphaeria nodorum = test: Glume Blotch of Wheat (LEPTNO), protectant spray test on wheat seedlings; settings: wheat (cultivar Monon), sprayed to run off at 100 ppm, inoculated after 24 hours
Phytophthora infestans = settings: tomatoes (cultivar Rutgers), sprayed to run off at 100 ppm, inoculated after 24 hours

Structure (SMILES)	ERYSGT control of plant disease (Erysiphe graminis)	PUCCRT control of plant disease (Puccinia recondita)	LEPTNO control of plant disease (Leptosphaeria nodorum)	PHYTIN control of plant disease (Phytophthora infestans)
CNC(=O)C(=NOC)c1ccccc1COc1ncc(C(OC(=O)COC)c2ccccc2)cc1Cl (racemic) [Example 64]	++ (++ = 75-100% control of plant disease)	++ (++ = 75-100% control of plant disease)	+ (+ = 25-74% control of plant disease)	++ (++ = 75-100% control of plant disease)
CNC(=O)C(=NOC)c1ccccc1COc1ncc(C(O)c2ccccc2F)cc1Cl (racemic) [Example 65]	++ (++ = 75-100% control of plant disease)	++ (++ = 75-100% control of plant disease)	++ (++ = 75-100% control of plant disease)	++ (++ = 75-100% control of plant disease)
CNC(=O)C(=NOC)c1ccccc1COc1ncc(COCc2ccc(OC)cc2)cc1Cl [Example 25]	++ (++ = 75-100% control of plant disease)	++ (++ = 75-100% control of plant disease)	++ (++ = 75-100% control of plant disease)	+ (+ = 25-74% control of plant disease)
CNC(=O)C(=NOC)c1ccccc1COc1ncc(C(C)(C)O)cc1Cl [Example 34]	− (− = 0-24% control of plant disease)	++ (++ = 75-100% control of plant disease)	+ (+ = 25-74% control of plant disease)	+ (+ = 25-74% control of plant disease)
CC[Si](CC)(CC)OC(c1ccccc1)c1cnc(OCc2ccccc2C(=NOC)C(=O)NC)c(Cl)c1 (stereo not shown) [Example 67]	++ (++ = 75-100% control of plant disease)	++ (++ = 75-100% control of plant disease)	++ (++ = 75-100% control of plant disease)	= =
CNC(=O)C(=NOC)c1ccccc1COc1ncc(C(OC(=O)OC)c2ccccc2)cc1Cl (stereo not shown) [Example 68]	++ (++ = 75-100% control of plant disease)	++ (++ = 75-100% control of plant disease)	− (− = 0-24% control of plant disease)	++ (++ = 75-100% control of plant disease)
CCOC(c1ccccc1)c1cnc(OCc2ccccc2C(=NOC)C(=O)NC)c(Cl)c1 (stereo not shown) [Example 69]	++ (++ = 75-100% control of plant disease)	++ (++ = 75-100% control of plant disease)	++ (++ = 75-100% control of plant disease)	− (− = 0-24% control of plant disease)
CNC(=O)C(=NOC)c1ccccc1COc1ncc(C(O)c2ccc(C)cc2)cc1Cl (stereo not shown) [Example 70]	++ (++ = 75-100% control of plant disease)	++ (++ = 75-100% control of plant disease)	++ (++ = 75-100% control of plant disease)	++ (++ = 75-100% control of plant disease)
CNC(=O)C(=NOC)c1ccccc1COc1ncc(C(OC(C)=O)c2ccc(C)cc2)cc1Cl (stereo not shown) [Example 71]	++ (++ = 75-100% control of plant disease)	++ (++ = 75-100% control of plant disease)	++ (++ = 75-100% control of plant disease)	++ (++ = 75-100% control of plant disease)
CNC(=O)C(=NOC)c1ccccc1COc1ncc(C(O)c2ccccc2)cc1Cl (stereo not shown) [Example 72]	++ (++ = 75-100% control of plant disease)	++ (++ = 75-100% control of plant disease)	++ (++ = 75-100% control of plant disease)	++ (++ = 75-100% control of plant disease)
CNC(=O)C(=NOC)c1ccccc1COc1ncc(C(O)c2cccc(Cl)c2)cc1Cl (stereo not shown) [Example 73]	++ (++ = 75-100% control of plant disease)	++ (++ = 75-100% control of plant disease)	++ (++ = 75-100% control of plant disease)	++ (++ = 75-100% control of plant disease)
CNC(=O)C(=NOC)c1ccccc1COc1ncc(C(OC(C)=O)c2ccccc2Cl)cc1Cl (stereo not shown) [Example 74]	++ (++ = 75-100% control of plant disease)	++ (++ = 75-100% control of plant disease)	++ (++ = 75-100% control of plant disease)	++ (++ = 75-100% control of plant disease)
CNC(=O)C(=NOC)c1ccccc1COc1ncc(C(OC(C)=O)c2cccc(Cl)c2)cc1Cl (stereo not shown) [Example 75]	++ (++ = 75-100% control of plant disease)	++ (++ = 75-100% control of plant disease)	++ (++ = 75-100% control of plant disease)	++ (++ = 75-100% control of plant disease)

From patent US6436963B1 (priority 1998, dated 2002)
